Columns and labels:
[1] = The drug is tested on Collinsella aerofaciens strain: ATCC25986 for biotransformation. The drug concentrations were measured before and after a 12-h incubation by liquid-chromatography-coupled mass spectrometry (LC–MS); conditions: 2 µM
[2] = The drug is tested on Collinsella intestinalis strain: DSM13280 for biotransformation. The drug concentrations were measured before and after a 12-h incubation by liquid-chromatography-coupled mass spectrometry (LC–MS); conditions: 2 µM
[3] = The drug is tested on Bacteroides pectinophilus strain: ATCC43243 for biotransformation. The drug concentrations were measured before and after a 12-h incubation by liquid-chromatography-coupled mass spectrometry (LC–MS); conditions: 2 µM
[4] = The drug is tested on Parabacteroides merdae strain: ATCC43184 for biotransformation. The drug concentrations were measured before and after a 12-h incubation by liquid-chromatography-coupled mass spectrometry (LC–MS); conditions: 2 µM
[5] = The drug is tested on Blautia hansenii strain: DSM20583 for biotransformation. The drug concentrations were measured before and after a 12-h incubation by liquid-chromatography-coupled mass spectrometry (LC–MS); conditions: 2 µM
[6] = The drug is tested on Clostridium symbiosum strain: ATCC14940 for biotransformation. The drug concentrations were measured before and after a 12-h incubation by liquid-chromatography-coupled mass spectrometry (LC–MS); conditions: 2 µM
[7] = The drug is tested on Edwardsiella tarda strain: ATCC23685 for biotransformation. The drug concentrations were measured before and after a 12-h incubation by liquid-chromatography-coupled mass spectrometry (LC–MS); conditions: 2 µM
[8] = The drug is tested on Escherichia coli strain: BW25113 for biotransformation. The drug concentrations were measured before and after a 12-h incubation by liquid-chromatography-coupled mass spectrometry (LC–MS); conditions: 2 µM
[9] = The drug is tested on Providencia stuartii strain: ATCC25827 for biotransformation. The drug concentrations were measured before and after a 12-h incubation by liquid-chromatography-coupled mass spectrometry (LC–MS); conditions: 2 µM
[10] = bacteroides eggerthii, 12 h, 2 µM
Description: The drug is tested on Bacteroides eggerthii strain: DSM20697 for biotransformation. The drug concentrations were measured before and after a 12-h incubation by liquid-chromatography-coupled mass spectrometry (LC–MS)

[11] = bacteroides fragilis, 12 h, 2 µM
Description: The drug is tested on Bacteroides fragilis strain: DS-208 for biotransformation. The drug concentrations were measured before and after a 12-h incubation by liquid-chromatography-coupled mass spectrometry (LC–MS)

[12] = parabacteroides johnsonii, 12 h, 2 µM
Description: The drug is tested on Parabacteroides johnsonii strain: DSM18315 for biotransformation. The drug concentrations were measured before and after a 12-h incubation by liquid-chromatography-coupled mass spectrometry (LC–MS)

[13] = enterocloster bolteae, 12 h, 2 µM
Description: The drug is tested on Clostridium bolteae strain: ATCCBAA-613 for biotransformation. The drug concentrations were measured before and after a 12-h incubation by liquid-chromatography-coupled mass spectrometry (LC–MS)

[14] = limosilactobacillus reuteri cf48-3a, 12 h, 2 µM
Description: The drug is tested on Lactobacillus reuteri CF48-3A strain: BEI HM-102 for biotransformation. The drug concentrations were measured before and after a 12-h incubation by liquid-chromatography-coupled mass spectrometry (LC–MS)

[15] = roseburia intestinalis, 12 h, 2 µM
Description: The drug is tested on Roseburia intestinalis strain: L1-82 for biotransformation. The drug concentrations were measured before and after a 12-h incubation by liquid-chromatography-coupled mass spectrometry (LC–MS)

[16] = The drug is tested on Bacteroides finegoldii strain: DSM17565 for biotransformation. The drug concentrations were measured before and after a 12-h incubation by liquid-chromatography-coupled mass spectrometry (LC–MS); conditions: 2 µM
[17] = The drug is tested on Anaerotruncus colihominis strain: DSM17241 for biotransformation. The drug concentrations were measured before and after a 12-h incubation by liquid-chromatography-coupled mass spectrometry (LC–MS); conditions: 2 µM
[18] = The drug is tested on Eubacterium rectale strain: ATCC33656 for biotransformation. The drug concentrations were measured before and after a 12-h incubation by liquid-chromatography-coupled mass spectrometry (LC–MS); conditions: agathobacter rectalis, 2 µM
[19] = The drug is tested on Clostridium sporogenes strain: ATCC15579 for biotransformation. The drug concentrations were measured before and after a 12-h incubation by liquid-chromatography-coupled mass spectrometry (LC–MS); conditions: 2 µM

| Structure (SMILES) | Bacterial Biotransformation [1] | Bacterial Biotransformation [2] | Bacterial Biotransformation [3] | Bacterial Biotransformation [4] | Bacterial Biotransformation [5] | Bacterial Biotransformation [6] | Bacterial Biotransformation [7] | Bacterial Biotransformation [8] | Bacterial Biotransformation [9] | Bacterial Biotransformation [10] | Bacterial Biotransformation [11] | Bacterial Biotransformation [12] | Bacterial Biotransformation [13] | Bacterial Biotransformation [14] | Bacterial Biotransformation [15] | Bacterial Biotransformation [16] | Bacterial Biotransformation [17] | Bacterial Biotransformation [18] | Bacterial Biotransformation [19] |
| --- | --- | --- | --- | --- | --- | --- | --- | --- | --- | --- | --- | --- | --- | --- | --- | --- | --- | --- | --- |
| CN1CCC[C@@H]1CCO[C@](C)(c1ccccc1)c1ccc(Cl)cc1.O=C(O)/C=C/C(=O)O [CLEMASTINE FUMARATE] | Compound NOT metabolized | Compound NOT metabolized | Compound metabolized | Compound NOT metabolized | Compound metabolized | Compound NOT metabolized | Compound NOT metabolized | Compound metabolized | Compound NOT metabolized | Compound metabolized | Compound metabolized | Compound NOT metabolized | Compound NOT metabolized | Compound NOT metabolized | Compound metabolized | – | – | – | – |
| CCC1(c2ccc(N)cc2)CCC(=O)NC1=O (configuration not stated) [AMINOGLUTETHIMIDE] | Compound NOT metabolized | Compound NOT metabolized | Compound NOT metabolized | Compound NOT metabolized | Compound NOT metabolized | Compound NOT metabolized | Compound NOT metabolized | Compound NOT metabolized | Compound NOT metabolized | Compound NOT metabolized | Compound NOT metabolized | Compound NOT metabolized | Compound NOT metabolized | Compound NOT metabolized | Compound NOT metabolized | Compound NOT metabolized | Compound NOT metabolized | Compound NOT metabolized | – |
| CC(C(=O)O)c1ccc2c(c1)Cc1cccnc1O2 (configuration not stated) [PRANOPROFEN] | Compound NOT metabolized | – | Compound metabolized | Compound metabolized | Compound metabolized | Compound metabolized | Compound metabolized | Compound metabolized | Compound metabolized | Compound metabolized | Compound metabolized | Compound metabolized | Compound metabolized | – | Compound NOT metabolized | Compound metabolized | Compound metabolized | – | – |
| CCCC1O[C@@H]2C[C@H]3[C@@H]4CCC5=CC(=O)C=C[C@]5(C)[C@H]4[C@@H](O)C[C@]3(C)[C@]2(C(=O)CO)O1 (some centres not stated) [BUDESONIDE] | Compound NOT metabolized | Compound NOT metabolized | Compound NOT metabolized | Compound metabolized | Compound metabolized | Compound NOT metabolized | Compound NOT metabolized | Compound NOT metabolized | – | Compound metabolized | – | Compound metabolized | Compound NOT metabolized | Compound NOT metabolized | – | Compound NOT metabolized | Compound NOT metabolized | Compound NOT metabolized | – |
| CCCC(C)(COC(N)=O)COC(=O)NC(C)C (configuration not stated) [CARISOPRODOL] | Compound metabolized | Compound NOT metabolized | Compound metabolized | Compound NOT metabolized | Compound metabolized | Compound NOT metabolized | – | Compound NOT metabolized | Compound NOT metabolized | – | Compound metabolized | – | Compound NOT metabolized | – | Compound metabolized | Compound NOT metabolized | – | Compound NOT metabolized | – |
| CSc1ccc2c(c1)C(N1CCN(C)CC1)Cc1ccccc1S2.O=C(O)/C=C\C(=O)O (configuration not stated) | Compound NOT metabolized | Compound NOT metabolized | Compound NOT metabolized | Compound NOT metabolized | Compound NOT metabolized | Compound NOT metabolized | Compound NOT metabolized | – | Compound NOT metabolized | Compound NOT metabolized | Compound NOT metabolized | Compound metabolized | Compound NOT metabolized | Compound NOT metabolized | Compound NOT metabolized | Compound NOT metabolized | Compound metabolized | Compound NOT metabolized | Compound metabolized |
| C[N+]12CCC(CC1)C(OC(=O)C(O)(c1ccccc1)c1ccccc1)C2.[Br-] (configuration not stated) [CLIDINIUM BROMIDE] | Compound NOT metabolized | Compound NOT metabolized | – | Compound NOT metabolized | Compound NOT metabolized | Compound NOT metabolized | Compound NOT metabolized | Compound NOT metabolized | Compound NOT metabolized | Compound NOT metabolized | Compound NOT metabolized | Compound NOT metabolized | – | – | Compound NOT metabolized | Compound NOT metabolized | Compound NOT metabolized | – | Compound NOT metabolized |
| CN/C(=N/CCSCc1nc[nH]c1C)NC#N [CIMETIDINE] | Compound NOT metabolized | Compound NOT metabolized | Compound NOT metabolized | Compound NOT metabolized | Compound NOT metabolized | Compound NOT metabolized | Compound NOT metabolized | Compound NOT metabolized | Compound NOT metabolized | Compound NOT metabolized | – | – | Compound NOT metabolized | Compound NOT metabolized | Compound NOT metabolized | – | Compound NOT metabolized | Compound NOT metabolized | – |
| COC(=O)[C@H](c1ccccc1Cl)N1CCc2sccc2C1.O=S(=O)(O)O [CLOPIDOGREL BISULFATE] | Compound NOT metabolized | Compound NOT metabolized | Compound NOT metabolized | Compound metabolized | Compound metabolized | Compound NOT metabolized | Compound NOT metabolized | Compound NOT metabolized | Compound NOT metabolized | Compound metabolized | Compound metabolized | Compound metabolized | Compound NOT metabolized | Compound NOT metabolized | Compound NOT metabolized | – | Compound NOT metabolized | – | Compound metabolized |
| Cc1nc2n(c(=O)c1CCN1CCC(c3noc4cc(F)ccc34)CC1)CCCC2 [RISPERIDONE] | Compound NOT metabolized | Compound metabolized | – | Compound NOT metabolized | Compound metabolized | Compound metabolized | Compound NOT metabolized | Compound NOT metabolized | – | – | Compound metabolized | Compound NOT metabolized | Compound NOT metabolized | Compound NOT metabolized | Compound metabolized | Compound NOT metabolized | Compound metabolized | Compound metabolized | Compound metabolized |
